This is an account of results in patent publication US20100267954A1, “PROCESS FOR THE PURIFICATION OF PALIPERIDONE” (DIPHARMA FRANCIS S.r.l., priority 2009, published 2010).

Molecules are shown by their SMILES. Where a name gives a salt, the structure may show the parent alone.

Data set [1] in a line: solubility in water (descriptive statement). The class given is physicochemical. To be noted: crystalline solid.
The conditions of data set [2]: compared with Form II, hydrate form and solvate form; per EMEA document; cited from earlier work.

For the molecule `Cc1nc2n(c(=O)c1CCN1CCC(c3noc4cc(F)ccc34)CC1)CCCC2O` (racemic) [paliperidone Form I, (±)-3-[2-[4-(6-fluoro-1,2-benzoisoxazol-3-yl)-1-piperidinyl]ethyl-6,7,8,9-tetrahydro-9-hydroxy-2-methylpropanediol-4H-pyrido[1,2-a]pyrimidin-4-one], the solubility in water entry in data set [1] is reported as “poorly soluble in water”. The “thermodynamic stability among crystalline forms” value in data set [2] is “most thermodynamically stable”.
For the molecule `Cc1nc2n(c(=O)c1CCN1CCC(c3noc4cc(F)ccc34)CC1)CCCC2O` (stereo not drawn) [paliperidone hydrochloride, 3-[2-[4-(6-fluoro-1,2-benzoisoxazol-3-yl)-1-piperidinyl]ethyl-6,7,8,9-tetrahydro-9-hydroxy-2-methyl-4H-pyrido[1,2-a]-pyrimidin-4-one hydrochloride], the solubility in water result in data set [1] is reported as “poorly soluble in water”.
